Measurements taken from patent US20230107128A1, “SCREENING SYSTEM FOR HUMAN-TRANSFORMED CARTILAGE CELL LINE-BASED CARTILAGE DISEASE TREATMENT AGENTS” (LUGEN SCI CO., LTD., priority 2018, published 2023).
“Also recorded” adds a separate entry of the source. Read-outs that look alike come from different tables or passages of the source.

How the values were obtained:
Sox9 = experiment: Rq-PCR of Sox9 expression in C28/I2 micromass culture; format: cell-based, human; details: 10 μM, 14 days micromass culture
Description: (§1) C28/I2 cell lines were subjected to micromass culture in order to compare and examine the change in the expression of Col2a1 and Sox9, which are the representative cartilage differentiation markers, and Col10, which is a cartilage hypertrophy marker, by treatment with the complex functional natural material 2-AQCA during long-term culture for inducing cartilage differentiation. For this purpose, the C28/I2 cells cultured for three days were collected and a cell fluid was prepared at a concentration of 2×10^7 cells/ml, and then 10 μl of cells were taken and injected into the center of a 24-well plate, and fixed in an incubator of 37° C., 5% CO2 for two to three hours until all the cells were attached to the bottom. When all the cells were fixed, 500 μl of serum culture fluid (DMEM/F12, 10% FBS, 1% penicillin, and streptomycin) was added and further cultured for seven hours or more. […]
(§2) After completing the micromass culture for 14 days, RNA was isolated from each cell pellet by using TRIzol™, and cDNA was synthesized from the isolated RNA. The synthesized cDNA was compared and analyzed for expression of the corresponding gene through a real-time quantitative polymerase chain reaction (Rq-PCR) by using a specific primer for each gene. […]

[1] = tested on: human type II collagen fusion promoter (Col2a1 promoter); experiment: Luciferase reporter screening system in C28/I2-EC2P-fLuc-CN5 cell line; format: cell-based; details: for cartilage regeneration activity (luminescence) compared with Kartogenin; criterion equal to or higher than Kartogenin: 50 μM, 48 hours, screen of 37 natural products
Description: All the experimental groups for the verification of the screening system according to the present invention and the search for novel cartilage regeneration materials were prepared by dissolving the same in dimethyl sulfoxide (DMSO) at the same concentration of 20 mM. The cells to be analyzed were seeded and fixed into a white-bottom 96-well plate, which was a plate exclusively used for luminescence analysis, at an initial concentration of 10,000 cells per well 24 hours before the experiment. On the following day, the cells were subjected to starvation in serum-free culture fluid (DMEM/F12 media) for seven hours. After that, while the culture fluid was replaced with the serum culture fluid [DMEM/F12, 10% FBS, 1% penicillin, and streptomycin], the experimental groups on natural products at each 20 mM were diluted 1/400, treated repeatedly three times, and further cultured for 48 hours.
After further culturing the cells to be analyzed, which were treated with natural materials in above 5.1, for 48 hours, all the culture fluid was removed and replaced with a new culture fluid containing D-luciferin at a final concentration of 150 μg/ml and reacted at room temperature for five minutes. Then, the degree of light emission from each cell was measured by using the luminescence analysis function of the TECAN SPARK multi-reader.
By using the screening system for cartilage disease treatment agents according to the present invention, the pattern of changes in cartilage regeneration activity according to the treatment concentration of 2-AQCA was compared with the activity of Kartogenin, a positive control group of natural material.

Col10a1 = experiment: Rq-PCR of Col10a1 expression in C28/I2 micromass culture; format: cell-based, human; details: 10 μM, 14 days micromass culture
Description: as §1, §2

Col2a1 = experiment: Rq-PCR of Col2a1 expression in C28/I2 micromass culture; format: cell-based, human; details: 10 μM, 14 days micromass culture
Description: as §1, §2

C28/I2 cell line = format: cell-based, human
Description: To confirm the effect of 2-AQCA on inhibiting a cell growth rate and the presence of toxicity, the cells to be analyzed (C28/I2 cell line and chondrocytes isolated from osteoarthritis patients) were seeded and fixed at an initial concentration of 10,000 cells per well in a 96-well plate 24 hours before the experiment, and the cells were subjected to starvation in serum-free culture fluid for seven hours on the following next day. After that, while the culture fluid was replaced with a serum culture fluid containing 10% FBS, the experimental groups were treated repeatedly three times with Kartogenin and 2-AQCA at each concentration and further cultured for 48 hours. The cells were treated with the test materials at each concentration of 0, 3.125, 6.25, 12.5, and 25 μM, which had been used to verify the effect of treatment at each of the concentrations. Similarly, in order to equalize the experimental conditions, the treatment was performed so that the final concentration of DMSO was 0.25% in all the experimental groups. […] Then, the absorbance of each cell was measured at 450 nm by using a TECAN SPARK multi-reader.

[2] = C28/I2-EC2P-fLuc-CN5, drug 0 to 50 μM

SMILES | Sox9 expression relative to the negative control group (Sox9) | luciferase activity at 50 μM ([1]; C28/I2-EC2P-fLuc-CN5, 50 μM) | luciferase activity with increasing concentration [1, 2] | cytotoxicity indirectly suggested by the luciferase activity ([1]; high concentration (50 μM)) | decrease in Col10a1 expression compared to the negative control group (Col10a1) | cartilage regeneration activity compared with Kartogenin ([1]; 25 μM) | cartilage regeneration activity (luminescence) compared with Kartogenin; criterion equal to or higher than Kartogenin [1] | cartilage regeneration activity compared with Kartogenin ([1]; concentration of less than 25 μM) | Col2a1 expression rate relative to the Kartogenin group (Col2a1) | Col2a1 expression rate relative to the negative control group (Col2a1) | cell growth rate higher than that of Kartogenin (C28/I2 cell line; C28/I2, 6.25 μM) | cell growth rate higher than that of Kartogenin (C28/I2 cell line; C28/I2, 12.5 μM) | luciferase activity compared with Kartogenin [1, 2]
O=C(O)c1ccccc1C(=O)Nc1ccc(-c2ccccc2)cc1 [Kartogenin] | insignificant increase | decreases the luciferase activity | increased as the concentration of both drugs is increased | has cytotoxicity at a high concentration | about 40% | – | – | – | – | – | – | – | –
O=C(O)c1ccc2c(c1)C(=O)c1ccccc1C2=O [2-AQCA, 2-anthraquinonecarboxylic acid] | at least 2.1 times | – | – | – | about 40% | slightly higher than that of Kartogenin | complies with the above conditions | somewhat lower than that of Kartogenin | about 4.2 times | 7.6 times | about 11% | about 8.2% | –
Cn1ncc2c1-c1c(Oc3ccc(OCc4ccc5ccccc5n4)cc3)sc(C(N)=O)c1CC2 [TD-198946] | – | – | increased as the concentration of both drugs is increased; also recorded: continuously increases the luciferase activity | – | – | – | higher than that of Kartogenin | – | – | – | – | – | higher than that of Kartogenin
